This assay relates to calcium channel (e.g., L-type, N-type, etc.) current. Put plainly: HEK assay (whole-cell patch clamp of calcium channel currents in transiently transfected HEK-293T/17 cells). It is filed as cell-based. To be noted: whole-cell voltage clamp, holding potential −100 mV. Here is the method: HEK-293T/17 cells are transiently transfected in a similar manner as described in FuGENE 6 Package Insert Version 7, April 2002, Roche Applied Science, Indianapolis, Ind. The cells are plated at 2.5×10^5 cells in 2 mL in a 6-well plate in incubator for one night and achieve a 30-40% confluence. In a small sterile tube, add sufficient serum-free medium as diluent for FuGENE Transfection Reagent (Roche Applied Science, Indianapolis, Ind.), to a total volume of 100 μL. Add 3 μL of FuGENE 6 Reagent directly into this medium. The mixture is tapped gently to mix. 2 μg of DNA solution (0.8-2.0 μg/μL) is added to the prediluted FuGENE 6 Reagent from above. The DNA/Fugene 6 mixture is gently pipetted to mix the contents and incubated for about 15 minutes at room temperature. The complex mixture is then added to the HEK-293T/17 cells, distributing it around the well, and swirled to ensure even dispersal. The cells are returned to the incubator for 24 hrs. The transfected cells are then replated at density 2.5×10^5 in a 35 mm dish with 5 glass coverslips and grow in low serum (1%) media for 24 hrs. Coverslips with isolated cells are then transferred into chamber and calcium channel (e.g., L-type, N-type, etc.) current or other currents for counter screening are recorded from the transiently transfected HEK-293T/17 cells.
The whole-cell voltage clamp configuration of the patch clamp technique is employed to evaluate voltage-dependent calcium currents essentially as described by Thompson and Wong (1991) J. Physiol., 439: 671-689. To record calcium channel (e.g., L-type, N-type, etc.) currents for evaluation of inhibitory potency of compounds (steady-state concentration-response analysis), five pulses of 20-30 ms voltage steps to about +10 mV (the peak of the current voltage relationship) are delivered at five Hz every 30 second from a holding potential at −100 mV. Compound evaluations were carried out essentially as described by Sah D W and Bean B P (1994) Mol Pharmacol. 45(1):84-92. Table 3 contains IC50's for representative compounds.
Background: The patch-clamp technique gives a direct electrical read-out from membranes.
What is called IC50 is the concentration that inhibits the measured activity by half. In the case of `COc1ccc(C(=O)CSc2nnc(CNc3ccc(F)cc3)n2-c2ccc(C)cc2)cc1` [Compound 5], the IC50 turned out to be 378 nM.

With `COc1ccccc1-c1nnc(SCC(=O)Nc2ccccn2)n1-c1ccc(C)cc1` [Compound 27], the IC50 came out at 695 nM.

For `COc1ccc(C(=O)CSc2nnc(-c3ccccc3OC)n2-c2ccc(C)cc2)cc1` [Compound 28], the IC50 was 572 nM.

The record behind these values is patent US20070203194A1, “Ion channel modulators” (SCION PHARMACEUTICALS, INC., priority 2004, published 2007).
